Experimental data from article PMC8819633 (Journal of medicinal chemistry, 2021).

Legend:
[1] = tested on: total AKT (T-AKT) and phosphorylated AKT (P-AKT (S473)); experiment: Western blot of AKT degradation in BT474 cells; type: cell-based, human; settings: for T-AKT and P-AKT protein degradation (western blot): 24 h, 1, 5 and 10 μM (12-13: 1, 3 and 10 μM); for T-AKT and P-AKT degradation: 1 μM; for T-AKT and P-AKT degradation / extent of T-AKT degradation in concentration-response / T-AKT protein level (western blot): 24 h; for extent of T-AKT degradation in concentration-response: indicated concentrations; for T-AKT protein level (western blot): controls at 1 μM
[2] = tested on: P-PRAS40 (T246) and P-S6 (S240/244); experiment: Western blot of downstream signaling inhibition in BT474 cells; type: cell-based, human; settings: 24 h, compared with GDC-0068 (1 μM)

Row | Compound | T-AKT and P-AKT protein degradation (western blot) [1] | other results
1 | 3-(((S)-2-(4-Chlorophenyl)-3-(4-((5R,7R)-7-hydroxy-5-methyl-6,7-dihydro-5H-cyclopenta[d]pyrimidin-4-yl)piperazin-1-yl)-3-oxopropyl)amino)-N-(2-(2-((2-(2,6-dioxopiperidin-3-yl)-1,3-dioxoisoindolin-4-yl)amino)ethoxy)ethyl)propenamide [Compound 14] | not very effective at all concentrations tested | –
2 | 3-(((S)-2-(4-Chlorophenyl)-3-(4-((5R,7R)-7-hydroxy-5-methyl-6,7-dihydro-5H-cyclopenta[d]pyrimidin-4-yl)piperazin-1-yl)-3-oxopropyl)amino)-N-(2-((2-(2,6-dioxopiperidin-3-yl)-1,3-dioxoisoindolin-4-yl)amino)ethyl)propenamide [Compound 19] | marginally effective in inducing AKT degradation at 1–10 μM | –
3 | 3-(((S)-2-(4-Chlorophenyl)-3-(4-((5R,7R)-7-hydroxy-5-methyl-6,7-dihydro-5H-cyclopenta[d]pyrimidin-4-yl)piperazin-1-yl)-3-oxopropyl)amino)-N-(3-((2-(2,6-dioxopiperidin-3-yl)-1,3-dioxoisoindolin-4-yl)amino)propyl)propenamide [Compound 20] | marginally effective in inducing AKT degradation at 1–10 μM | –
4 | 3-(((S)-2-(4-Chlorophenyl)-3-(4-((5R,7R)-7-hydroxy-5-methyl-6,7-dihydro-5H-cyclopenta[d]pyrimidin-4-yl)piperazin-1-yl)-3-oxopropyl)amino)-N-(4-((2-(2,6-dioxopiperidin-3-yl)-1,3-dioxoisoindolin-4-yl)amino)butyl)propenamide [Compound 21] | marginally effective in inducing AKT degradation at 1–10 μM | –
5 | 3-(((S)-2-(4-Chlorophenyl)-3-(4-((5R,7R)-7-hydroxy-5-methyl-6,7-dihydro-5H-cyclopenta[d]pyrimidin-4-yl)piperazin-1-yl)-3-oxopropyl)amino)-N-(5-((2-(2,6-dioxopiperidin-3-yl)-1,3-dioxoisoindolin-4-yl)amino)pentyl)propenamide [Compound 22] | marginally effective in inducing AKT degradation at 1–10 μM | –
6 | 3-(((S)-2-(4-Chlorophenyl)-3-(4-((5R,7R)-7-hydroxy-5-methyl-6,7-dihydro-5H-cyclopenta[d]pyrimidin-4-yl)piperazin-1-yl)-3-oxopropyl)amino)-N-(6-((2-(2,6-dioxopiperidin-3-yl)-1,3-dioxoisoindolin-4-yl)amino)hexyl)propenamide [Compound 23] | highly effective in reducing T-AKT and P-AKT protein levels | –
7 | 3-(((S)-2-(4-Chlorophenyl)-3-(4-((5R,7R)-7-hydroxy-5-methyl-6,7-dihydro-5H-cyclopenta[d]pyrimidin-4-yl)piperazin-1-yl)-3-oxopropyl)amino)-N-(7-((2-(2,6-dioxopiperidin-3-yl)-1,3-dioxoisoindolin-4-yl)amino)heptyl)propenamide [Compound 24] | highly effective in reducing T-AKT and P-AKT protein levels | –
8 | 3-(((S)-2-(4-Chlorophenyl)-3-(4-((5R,7R)-7-hydroxy-5-methyl-6,7-dihydro-5H-cyclopenta[d]pyrimidin-4-yl)piperazin-1-yl)-3-oxopropyl)amino)-N-(8-((2-(2,6-dioxopiperidin-3-yl)-1,3-dioxoisoindolin-4-yl)oxy)octyl)propenamide [Compound 29] | maintained the excellent AKT degradation | T-AKT and P-AKT degradation [1]: > 95%; inhibition of downstream signaling, P-PRAS40 and P-S6 [2]: maintained the excellent AKT degradation and downstream signaling inhibition effects
9 | 3-(((S)-2-(4-Chlorophenyl)-3-(4-((5R,7R)-7-hydroxy-5-methyl-6,7-dihydro-5H-cyclopenta[d]pyrimidin-4-yl)piperazin-1-yl)-3-oxopropyl)amino)-N-(8-((2-(2,6-dioxopiperidin-3-yl)-1-oxoisoindolin-4-yl)amino)octyl)propenamide [Compound 28] | completely abolished AKT degradation activity | –
10 | 3-(((S)-2-(4-Chlorophenyl)-3-(4-((5R,7R)-7-hydroxy-5-methyl-6,7-dihydro-5H-cyclopenta[d]pyrimidin-4-yl)piperazin-1-yl)-3-oxopropyl)amino)-N-(9-(2-(2,6-dioxopiperidin-3-yl)-1,3-dioxoisoindolin-4-yl)nonyl)propenamide [Compound 27] | maintained the excellent AKT degradation | T-AKT and P-AKT degradation [1]: > 95%; inhibition of downstream signaling, P-PRAS40 and P-S6 [2]: maintained the excellent AKT degradation and downstream signaling inhibition effects
11 | Cc1ncsc1-c1ccc(CNC(=O)[C@@H]2C[C@@H](O)CN2C(=O)[C@@H](NC(=O)COCCNC(=O)CCNC[C@@H](C(=O)N2CCN(c3ncnc4c3[C@H](C)C[C@H]4O)CC2)c2ccc(Cl)cc2)C(C)(C)C)cc1 [Compound 3, (2S,4R)-1-((2S,15S)-2-(tert-Butyl)-15-(4-chlorophenyl)-16-(4-((5R,7R)-7-hydroxy-5-methyl-6,7-dihydro-5H-cyclopenta[d]-pyrimidin-4-yl)piperazin-1-yl)-4,10,16-trioxo-6-oxa-3,9,13-triaza-hexadecanoyl)-4-hydroxy-N-(4-(4-methylthiazol-5-yl)benzyl)-pyrrolidine-2-carboxamide] | induced significant T-AKT and P-AKT protein degradation at concentrations of 5 and 10 μM | inhibition of downstream signaling, P-PRAS40 and P-S6 [2]: less than GDC-0068
12 | Cc1ncsc1-c1ccc(CNC(=O)[C@@H]2C[C@@H](O)CN2C(=O)[C@@H](NC(=O)COCCOCCNC(=O)CCNC[C@@H](C(=O)N2CCN(c3ncnc4c3[C@H](C)C[C@H]4O)CC2)c2ccc(Cl)cc2)C(C)(C)C)cc1 [Compound 4, (2S,4R)-1-((2S,18S)-2-(tert-Butyl)-18-(4-chlorophenyl)-19-(4-((5R,7R)-7-hydroxy-5-methyl-6,7-dihydro-5H-cyclopenta[d]-pyrimidin-4-yl)piperazin-1-yl)-4,13,19-trioxo-6,9-dioxa-3,12,16-tri-azanonadecanoyl)-4-hydroxy-N-(4-(4-methylthiazol-5-yl)benzyl)-pyrrolidine-2-carboxamide] | less effective in AKT degradation | –
13 | Cc1ncsc1-c1ccc(CNC(=O)[C@@H]2C[C@@H](O)CN2C(=O)[C@@H](NC(=O)CCCCNC(=O)CCNC[C@@H](C(=O)N2CCN(c3ncnc4c3[C@H](C)C[C@H]4O)CC2)c2ccc(Cl)cc2)C(C)(C)C)cc1 [Compound 6, (2S,4R)-1-((S)-2-(5-(3-(((S)-2-(4-Chlorophenyl)-3-(4-((5R,7R)-7-hydroxy-5-methyl-6,7-dihydro-5H-cyclopenta[d]pyrimidin-4-yl)-piperazin-1-yl)-3-oxopropyl)amino)propanamido)pentanamido)-3,3-dimethylbutanoyl)-4-hydroxy-N-(4-(4-methylthiazol-5-yl)-benzyl)pyrrolidine-2-carboxamide] | concentration-dependently reduced the protein levels of T-AKT and P-AKT | –
14 | Cc1ncsc1-c1ccc([C@H](C)NC(=O)[C@H]2C[C@H](O)CN2C(=O)[C@@H](NC(=O)CCCCCCCCCCC(=O)NCCNC[C@@H](C(=O)N2CCN(c3ncnc4c3[C@H](C)C[C@H]4O)CC2)c2ccc(Cl)cc2)C(C)(C)C)cc1 [Compound 61, N^1-(2-(((S)-2-(4-Chlorophenyl)-3-(4-((5R,7R)-7-hydroxy-5-methyl-6,7-dihydro-5H-cyclopenta[d]pyrimidin-4-yl)piperazin-1-yl)-3-oxopropyl)amino)ethyl)-N^12-((S)-1-((2R,4S)-4-hydroxy-2-(((S)-1-(4-(4-methylthiazol-5-yl)phenyl)ethyl)carbamoyl)pyrrolidin-1-yl)-3,3-dimethyl-1-oxobutan-2-yl)dodecanediamide] | – | extent of T-AKT degradation in concentration-response [1]: did not degrade T-AKT
15 | C[C@@H]1C[C@@H](O)c2ncnc(N3CCN(C(=O)[C@H](CNCCC(=O)NCCCCCCCCNc4cccc5c4C(=O)N(C4CCC(=O)N(C)C4=O)C5=O)c4ccc(Cl)cc4)CC3)c21 (stereo partly drawn) [Compound 62, 3-(((S)-2-(4-Chlorophenyl)-3-(4-((5R,7R)-7-hydroxy-5-methyl-6,7-dihydro-5H-cyclopenta[d]pyrimidin-4-yl)piperazin-1-yl)-3-oxopropyl)amino)-N-(8-((2-(1-methyl-2,6-dioxopiperidin-3-yl)-1,3-dioxoisoindolin-4-yl)amino)octyl)propenamide] | – | extent of T-AKT degradation in concentration-response [1]: did not degrade T-AKT
16 | Nc1cccc2c1C(=O)N(C1CCC(=O)NC1=O)C2=O (centres unmarked) [POM, pomalidomide, reference compound] | – | T-AKT protein level (western blot) [1]: no detectable effect on the T-AKT protein level
17 | Cc1ncsc1-c1ccc(CNC(=O)[C@@H]2C[C@@H](O)CN2C(=O)[C@@H](N)C(C)(C)C)cc1 [VHL-1, reference compound] | – | T-AKT protein level (western blot) [1]: no detectable effect on the T-AKT protein level
18 | (2S,4R)-1-((2S,25S)-2-(tert-Butyl)-25-(4-chlorophenyl)-26-(4-((5R,7R)-7-hydroxy-5-methyl-6,7-dihydro-5H-cyclopenta[d]-pyrimidin-4-yl)piperazin-1-yl)-4,20,26-trioxo-7,10,13,16-tetraoxa-3,19,23-triazahexacosanoyl)-4-hydroxy-N-(4-(4-methylthiazol-5-yl)benzyl)pyrrolidine-2-carboxamide [Compound 5] | less effective in AKT degradation | –
